Laboratory results as given in patent US10538498B2, “1,3,4-oxadiazole sulfonamide derivative compounds as histone deacetylase 6 inhibitor, and the pharmaceutical composition comprising the same” (Chong Kun Dang Pharmaceutical Corp., priority 2015, dated 2020).

Biological target: T1, human recombinant HDAC6 (Homo sapiens, UniProt Q9UBN7)
T1 construct: purchased Calbiochem 382180
T1 sequence (Q9UBN7 1-1215): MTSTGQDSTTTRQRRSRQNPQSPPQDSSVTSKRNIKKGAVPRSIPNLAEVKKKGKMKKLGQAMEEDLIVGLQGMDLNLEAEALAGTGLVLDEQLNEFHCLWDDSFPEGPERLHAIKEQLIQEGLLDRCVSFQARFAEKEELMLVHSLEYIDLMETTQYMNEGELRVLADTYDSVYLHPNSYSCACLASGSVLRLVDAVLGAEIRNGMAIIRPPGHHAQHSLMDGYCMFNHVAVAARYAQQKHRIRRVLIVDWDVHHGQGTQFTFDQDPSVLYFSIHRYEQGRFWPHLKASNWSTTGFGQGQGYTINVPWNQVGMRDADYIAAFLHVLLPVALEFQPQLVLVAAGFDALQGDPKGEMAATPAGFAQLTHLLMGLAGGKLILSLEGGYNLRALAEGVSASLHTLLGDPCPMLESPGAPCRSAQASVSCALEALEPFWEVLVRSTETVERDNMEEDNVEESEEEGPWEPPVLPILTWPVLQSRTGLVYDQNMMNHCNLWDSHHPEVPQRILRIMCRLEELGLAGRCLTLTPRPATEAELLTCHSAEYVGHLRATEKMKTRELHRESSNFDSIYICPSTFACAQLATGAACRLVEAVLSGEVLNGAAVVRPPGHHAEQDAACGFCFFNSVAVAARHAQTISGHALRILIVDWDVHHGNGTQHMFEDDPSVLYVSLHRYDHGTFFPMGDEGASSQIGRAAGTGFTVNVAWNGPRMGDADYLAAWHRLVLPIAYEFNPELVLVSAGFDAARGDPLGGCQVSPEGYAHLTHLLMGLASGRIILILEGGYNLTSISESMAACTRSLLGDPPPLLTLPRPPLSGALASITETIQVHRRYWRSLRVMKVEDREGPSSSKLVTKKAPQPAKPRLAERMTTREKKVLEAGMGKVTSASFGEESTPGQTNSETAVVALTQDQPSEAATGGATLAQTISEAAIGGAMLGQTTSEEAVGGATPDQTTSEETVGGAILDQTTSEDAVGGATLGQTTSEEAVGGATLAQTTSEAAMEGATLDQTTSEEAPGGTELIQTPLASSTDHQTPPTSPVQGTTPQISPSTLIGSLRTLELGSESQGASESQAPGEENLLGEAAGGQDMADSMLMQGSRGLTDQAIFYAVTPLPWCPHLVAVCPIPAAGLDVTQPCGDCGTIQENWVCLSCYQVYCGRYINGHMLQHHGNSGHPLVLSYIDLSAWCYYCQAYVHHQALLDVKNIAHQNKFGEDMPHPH
Test: HDAC6 enzyme activity inhibition assay (HDAC Fluorimetric Drug Discovery Kit)
Type: biochemical
Settings: for HDAC6 selectivity (fold): HDAC1 vs HDAC6; for IC50: same protocol as the HDAC1 enzyme activity test
Summary of the method: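 IC50s derived from fluorescence (Ex 360, Em 460) read after a 30-min developer step. Beforehand, compounds in 5-fold dilution series reacted 60 min at 30° C with 0.3 μg human recombinant enzyme and 10 μM Fluor de Lys-SIRT1 substrate.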

Row | HDAC6 selectivity (fold) | IC50 [nM] | SMILES
1 | 198 | 504 | Cc1cccc(N(Cc2ccc(-c3nnc(C(F)F)o3)cc2)S(=O)(=O)C2CCN(C3CC4CCC3C4)CC2)c1 (centres unmarked) [Compound 11693, 1-(bicyclo[2.2.1]heptan-2-yl)-N-(4-(5-(difluoromethyl)-1,3,4-oxadiazol-2-yl)benzyl)-N-(m-tolyl)piperidine-4-sulfonamide]
2 | 215 | 464 | Cc1cccc(N(Cc2ccc(-c3nnc(C(F)F)o3)cc2)S(=O)(=O)C2CCN(C3CCC(F)(F)CC3)CC2)c1 [Compound 11694, 1-(4,4-difluorocyclohexyl)-N-(4-(5-(difluoromethyl)-1,3,4-oxadiazol-2-yl)benzyl)-N-(m-tolyl)piperidine-4-sulfonamide]
3 | 101 | 988 | Cc1cccc(N(Cc2ccc(-c3nnc(C(F)F)o3)cc2)S(=O)(=O)C2CCN([C@H]3CC[C@H](C(F)(F)F)CC3)CC2)c1 [Compound 11697, N-(4-(5-(difluoromethyl)-1,3,4-oxadiazol-2-yl)benzyl)-N-(m-tolyl)-1-((1r,4r)-4-(trifluoromethyl)cyclohexyl)piperidine-4-sulfonamide]
4 | 151 | 661 | Cc1cccc(N(Cc2ccc(-c3nnc(C(F)F)o3)cc2)S(=O)(=O)C2CCN([C@H]3CC[C@@H](C(F)(F)F)CC3)CC2)c1 [Compound 11698, N-(4-(5-(difluoromethyl)-1,3,4-oxadiazol-2-yl)benzyl)-N-(m-tolyl)-1-((1s,4s)-4-(trifluoromethyl)cyclohexyl)piperidine-4-sulfonamide]
5 | 776 | 129 | Cc1cccc(N(Cc2ccc(-c3nnc(C(F)F)o3)cc2)S(=O)(=O)C2CCN(C3CCOCC3)CC2)c1 [Compound 11699, N-(4-(5-(difluoromethyl)-1,3,4-oxadiazol-2-yl)benzyl)-1-(tetrahydro-2H-pyran-4-yl)-N-(m-tolyl)piperidine-4-sulfonamide]
6 | 782 | 128 | O=S(=O)(CCN1CCCC(O)C1)N(Cc1ccc(-c2nnc(C(F)F)o2)cc1)c1ccccc1 (centres unmarked) [Compound 11700, N-(4-(5-(difluoromethyl)-1,3,4-oxadiazol-2-yl)benzyl)-2-(3-hydroxypiperidin-1-yl)-N-phenylethanesulfonamide]
7 | 637 | 157 | O=S(=O)(CCCN1CC[C@H](F)C1)N(Cc1ccc(-c2nnc(C(F)F)o2)cc1)c1ccccc1 [Compound 11705, (S)—N-(4-(5-(difluoromethyl)-1,3,4-oxadiazol-2-yl)benzyl)-3-(3-fluoropyrrolidin-1-yl)-N-phenylpropane-1-sulfonamide]
8 | 150 | 662 | O=S(=O)(CCCN1CCC(F)(F)C1)N(Cc1ccc(-c2nnc(C(F)F)o2)cc1)c1ccccc1 [Compound 11706, N-(4-(5-(difluoromethyl)-1,3,4-oxadiazol-2-yl)benzyl)-3-(3,3-difluoropyrrolidin-1-yl)-N-phenylpropane-1-sulfonamide]
9 | 264 | 378 | CCS(=O)(=O)N(Cc1ccc(-c2nnc(C(F)F)o2)cn1)c1cccc2c1CN(C)C2 [Compound 11712, N-((5-(5-(difluoromethyl)-1,3,4-oxadiazol-2-yl)pyridin-2-yl)methyl)-N-(2-methylisoindolin-4-yl)ethanesulfonamide]
10 | 879 | 114 | O=S(=O)(CCN1CCN(CCO)CC1)N(Cc1ccc(-c2nnc(C(F)F)o2)cc1)c1ccccc1 [Compound 11717, N-(4-(5-(difluoromethyl)-1,3,4-oxadiazol-2-yl)benzyl)-2-(4-(2-hydroxyethyl)piperazin-1-yl)-N-phenylethanesulfonamide]
11 | 1353 | 73.9 | O=S(=O)(CCCN1CCOCC1)N(Cc1ccc(-c2nnc(C(F)F)o2)cn1)c1ccccc1 [Compound 11718, N-((5-(5-(difluoromethyl)-1,3,4-oxadiazol-2-yl)pyridin-2-yl)methyl)-3-morpholino-N-phenylpropane-1-sulfonamide]
12 | 1177 | 84.9 | O=S(=O)(CCCN1CCC(F)(F)C1)N(Cc1ccc(-c2nnc(C(F)F)o2)cn1)c1ccccc1 [Compound 11719, N-((5-(5-(difluoromethyl)-1,3,4-oxadiazol-2-yl)pyridin-2-yl)methyl)-3-(3,3-difluoropyrrolidin-1-yl)-N-phenylpropane-1-sulfonamide]
13 | 4739 | 21.1 | O=S(=O)(CCCN1CCCC1)N(Cc1ccc(-c2nnc(C(F)F)o2)cn1)c1ccc(F)c(Cl)c1 [Compound 11721, N-(3-chloro-4-fluorophenyl)-N-((5-(5-(difluoromethyl)-1,3,4-oxadiazol-2-yl)pyridin-2-yl)methyl)-3-(pyrrolidin-1-yl)propane-1-sulfonamide]
14 | 1272 | 78.6 | O=S(=O)(CCCN1CCOCC1)N(Cc1ccc(-c2nnc(C(F)F)o2)cc1)c1ccc(F)c(Cl)c1 [Compound 11723, N-(3-chloro-4-fluorophenyl)-N-(4-(5-(difluoromethyl)-1,3,4-oxadiazol-2-yl)benzyl)-3-morpholinopropane-1-sulfonamide]
15 | 412 | 243 | O=S(=O)(C1CCN([C@H]2CC[C@H](F)CC2)CC1)N(Cc1ccc(-c2nnc(C(F)F)o2)cc1)c1cccc(Cl)c1 [Compound 11725, N-(3-chlorophenyl)-N-(4-(5-(difluoromethyl)-1,3,4-oxadiazol-2-yl)benzyl)-1-((1r,4r)-4-fluorocyclohexyl)piperidine-4-sulfonamide]
16 | 782 | 128 | O=S(=O)(C1CCN([C@H]2CC[C@@H](F)CC2)CC1)N(Cc1ccc(-c2nnc(C(F)F)o2)cc1)c1cccc(Cl)c1 [Compound 11726, N-(3-chlorophenyl)-N-(4-(5-(difluoromethyl)-1,3,4-oxadiazol-2-yl)benzyl)-1-((1s,4s)-4-fluorocyclohexyl)piperidine-4-sulfonamide]
17 | 56 | 1760 | CN1Cc2ccc(N(Cc3ccc(-c4nnc(C(F)F)o4)cc3)S(C)(=O)=O)cc2C1 [Compound 11729, N-(4-(5-(difluoromethyl)-1,3,4-oxadiazol-2-yl)benzyl)-N-(2-methylisoindolin-5-yl)methanesulfonamide]
18 | 39 | 2530 | CC(C)N1Cc2ccc(N(Cc3ccc(-c4nnc(C(F)F)o4)cc3)S(C)(=O)=O)cc2C1 [Compound 11730, N-(4-(5-(difluoromethyl)-1,3,4-oxadiazol-2-yl)benzyl)-N-(2-isopropylisoindolin-5-yl)methanesulfonamide]
19 | 57 | 1750 | CS(=O)(=O)N(Cc1ccc(-c2nnc(C(F)F)o2)cc1)c1ccc2c(c1)CN(C1COC1)C2 [Compound 11731, N-(4-(5-(difluoromethyl)-1,3,4-oxadiazol-2-yl)benzyl)-N-(2-(oxetan-3-yl)isoindolin-5-yl)methanesulfonamide]
20 | 184 | 542 | CC(=O)N1Cc2ccc(N(Cc3ccc(-c4nnc(C(F)F)o4)cc3)S(C)(=O)=O)cc2C1 [Compound 11732, N-(2-acetylisoindolin-5-yl)-N-(4-(5-(difluoromethyl)-1,3,4-oxadiazol-2-yl)benzyl)methanesulfonamide]
21 | 203 | 490 | CN1Cc2ccc(N(Cc3ccc(-c4nnc(C(F)F)o4)cn3)S(C)(=O)=O)cc2C1 [Compound 11733, N-((5-(5-(difluoromethyl)-1,3,4-oxadiazol-2-yl)pyridin-2-yl)methyl)-N-(2-methylisoindolin-5-yl)methanesulfonamide]
22 | 132 | 755 | CC(C)N1Cc2ccc(N(Cc3ccc(-c4nnc(C(F)F)o4)cn3)S(C)(=O)=O)cc2C1 [Compound 11734, N-((5-(5-(difluoromethyl)-1,3,4-oxadiazol-2-yl)pyridin-2-yl)methyl)-N-(2-isopropylisoindolin-5-yl)methanesulfonamide]
